{"source": "patent US12514842B2", "about": "“Use of a benzoate containing composition to treat neurodegenerative disorders” (Rush University Medical Center, priority 2019, dated 2026)", "key": {"[1]": {"system": "Huntington transgenic (N171-82Q) mice", "experiment": "Locomotor activities after glyceryl tribenzoate nebulization in Huntington transgenic mice", "format": "in vivo", "conditions": "nebulization about 2 and about 5 mg/kg body wt/day, six weeks", "description": "Since many features of Huntington's disease are modeled in N171-82Q transgenic mice, the effects of glyceryl tribenzoate nebulization on locomotor activities were examined in N171-82Q mice. A Buxco® Inhalation Tower All-In-One Controller was used to nebulize the glyceryl tribenzoate. A whole-body chamber was fitted with aeroneb ultrasonic nebulizers supplied with air from a Buxco® bias flow pump. Huntington transgenic (N171-82Q) mice were allowed to nebulize glyceryl tribenzoate at doses of about 2 and about 5 mg/kg body wt/day (solubilized in a volume of 100 μl saline/mouse) for 3 min. Briefly, three-month old transgenic mice were treated with different doses (about 2 and about 5 mg/kg body wt/d) of glyceryl tribenzoate solubilized in about 100 μl saline via nebulization. Control Huntington's disease mice received only 100 μl saline as vehicle. After six weeks of treatment, locomotor activities were monitored. Data are mean+SEM of three mice per group.\nVelocity refers to the speed at which the mouse walks. Total distance refers to the distance covered by the mouse in a certain period of time. Moving frequency refers to how much a mouse moves around in a given time period and cumulative duration refers to total duration spent at the center."}, "[2]": {"system": "huntingtin (HTT) inclusion bodies", "experiment": "Huntingtin inclusion bodies in striatum and cortex by immunohistochemistry and Western blotting", "format": "in vivo", "conditions": "N171-82Q Tg mice, about 50 mg/kg body wt/day via gavage, two months", "method": "Deposition of huntingtin (HTT) inclusion bodies is a pathological hallmark of Huntington's disease. This pathology is based on an expansion of CAG repeats in exon 1 of the huntingtin gene on chromosome 4 that generates a mutant huntingtin protein leading to abnormal HTT aggregates.\nBriefly, three-month old transgenic mice were treated with GTB (about 50 mg/kg body wt/day) via gavage. Control Huntington's disease mice received only 100 μl 0.5% methylcellulose as vehicle. After two months of treatment, huntingtin inclusion bodies (HTT) were monitored in brain sections (striatal—FIG. 2A, cortical—FIG. 2B) by immunohistochemistry. Further, HTT positive (“(+)ve”) cells were counted in two sections (striatal—FIG. 2C, cortical—FIG. 2D) of each of six mice per group.\nFIG. 2A and 2B show the results from immunohistochemistry, which indicate that administration of GTB reduces the number of HTT inclusion bodies in striatum and cortex. FIGS. 2C and 2D show the number of HTT (+ve) cells in striatum and cortex of GTB treated and untreated mice and indicate a reduction in the number of HTT in treated mice.\nThis was also confirmed by Western blotting. By Western blotting, the inventor could detect 348 kDa band of aggregated HTT in the cortex that was inhibited by oral GTB treatment (FIG. 2E-2F)."}, "microglial activation [3]": {"system": "microglial activation", "experiment": "Microglial activation in striatum (Iba-1 DAB staining, double-label immunofluorescence, Western blot)", "format": "in vivo", "conditions": "N171-82Q Tg mice, about 50 mg/kg body wt/day via gavage, two months", "method": "Three-month old transgenic mice were treated with GTB (about 50 mg/kg body wt/day) via gavage. Control Huntington's disease mice received only 100 μl 0.5% methylcellulose as vehicle. After two months of treatment, microglial activation was monitored in striatal sections by DAB staining (FIG. 3A) and double-label immunofluorescence (FIG. 3B). The results shown in FIGS. 3A-3G represent an analysis of six mice per group.\nFIG. 3D depicts the Mean Fluorescence Intensity (MFI) of iNOS in control mice (nTg), untreated N171-82Q mice and GTB treated N171-82Q mice. FIG. 3E is the western blot for Iba-1 and iNOS and FIGS. 3F and 3G are a quantitative analysis of the western blot shown in FIG. 3E.\n(§1) As evident from Iba-1 immunostaining as well as Iba-1 Western blot, the inventor found microgliosis in the striatum (FIG. 3) and cortex (FIG. 4) of untreated N171-82Q Tg mice. Activated microglia also express inducible nitric oxide synthase (iNOS)."}, "microglial activation [4]": {"system": "microglial activation", "experiment": "Microglial activation in cortex (Iba-1 DAB staining, double-label immunofluorescence, Western blot)", "format": "in vivo", "conditions": "N171-82Q Tg mice, about 50 mg/kg body wt/day via gavage, two months", "method": "Three-month old transgenic (Tg) mice were treated with glyceryl tribenzoate (about 50 mg/kg body wt/day) via gavage. Control Huntington's disease mice received only 100 μl 0.5% methylcellulose as vehicle. After two months of treatment, microglial activation was monitored in cortical sections by DAB staining (FIG. 4A) and double-label immunofluorescence (FIG. 4B). The results shown in FIGS. 4A-4B represent an analysis of six mice per group.\nFIG. 4D depicts the Mean Fluorescence Intensity (MFI) of iNOS in control mice (nTg), untreated N171-82Q mice and GTB treated N171-82Q mice. FIG. 4E is the western blot for Iba-1 and iNOS and FIGS. 4F and 4G are a quantitative analysis of the western blot shown in FIG. 4E.\nas §1"}, "astroglial activation": {"system": "astroglial activation", "experiment": "Astroglial activation in striatum and cortex (GFAP DAB staining)", "format": "in vivo", "conditions": "N171-82Q Tg mice, about 50 mg/kg body wt/day via gavage, two months", "method": "Three-month old transgenic (Tg) mice were treated with glyceryl tribenzoate (about 50 mg/kg body wt/day) via gavage. Control Huntington's disease mice received only 100 μl 0.5% methylcellulose as vehicle. After two months of treatment, astroglial activation was monitored in striatal (FIG. 5A) and cortical (FIG. 5B) sections by DAB staining. Further, the number of glial fibrillary acidic protein (GFAP) (+)ve cells were counted in two striatal (FIG. 5C) and cortical (FIG. 5D) sections of each of six mice per group.\nSince astroglia are the major cell type in the CNS, any contribution from this cell type would be significant. Therefore, the inventor also monitored astrogliosis in the CNS of N171-82Q Tg mice."}, "[5]": {"system": "interleukin-6 (IL-6) and IL-1β", "experiment": "Serum proinflammatory cytokines by sandwich ELISA", "format": "in vivo", "conditions": "N171-82Q mice, 50 mg/kg body wt/d via gavage, 1 month", "method": "Three-month old Tg mice (n=3 in each group) were treated with GTB (50 mg/kg body wt/d) mixed with 100 μl 0.5% methylcellulose via gavage. Therefore, control HD mice received only 100 μl 0.5% methylcellulose as vehicle. After 1 month of treatment, levels of interleukin-6 (IL-6) and IL-1β were measured in serum by sandwich ELISA.\nResults are mean+SEM of three mice per group. *p<0.05; ***p<0.001."}, "[6]": {"system": "multiple sclerosis (MS) in mice", "conditions": "cited from earlier work"}, "DJ-1": {"system": "DJ-1", "conditions": "astrocytes and neurons; cited from earlier work"}, "BDNF and NT-3": {"system": "BDNF and NT-3", "conditions": "brain cells; cited from earlier work"}}}
{"smiles": "O=C(OCC(COC(=O)c1ccccc1)OC(=O)c1ccccc1)c1ccccc1", "note": "[glyceryl tribenzoate, 2,3-dibenzoyloxypropyl benzoate]", "values": [{"measurement": "velocity", "setting": "[1]; FIG. 1A", "result": "markedly improved"}, {"measurement": "total distance", "setting": "[1]; FIG. 1B", "result": "markedly improved"}, {"measurement": "moving frequency", "setting": "[1]; FIG. 1C", "result": "markedly improved"}, {"measurement": "cumulative duration", "setting": "[1]; FIG. 1D", "result": "markedly improved"}, {"measurement": "rotorod performance", "setting": "[1]; FIG. 1E", "result": "markedly improved"}, {"measurement": "348 kDa band of aggregated HTT in the cortex", "setting": "[2]; Western blotting", "result": "inhibited"}, {"measurement": "HTT inclusion in the cortex", "setting": "[2]; immunohistochemistry", "result": "significant reduction"}, {"measurement": "HTT inclusion in the striatum", "setting": "[2]; immunohistochemistry", "result": "significant reduction"}, {"measurement": "expression of iNOS in striatum", "setting": "microglial activation [3]", "result": "significantly inhibited"}, {"measurement": "microgliosis in striatum", "setting": "microglial activation [3]; Iba-1", "result": "significantly inhibited"}, {"measurement": "expression of iNOS in cortex", "setting": "microglial activation [4]", "result": "significantly inhibited"}, {"measurement": "microgliosis in cortex", "setting": "microglial activation [4]; Iba-1", "result": "significantly inhibited"}, {"measurement": "astrogliosis in the CNS (GFAP, striatum and cortex)", "setting": "astroglial activation", "result": "reduced"}, {"measurement": "level of IL-1β in serum", "setting": "[5]", "result": "significantly decreases"}, {"measurement": "level of IL-6 in serum", "setting": "[5]", "result": "significantly decreases"}]}
{"smiles": "O=C([O-])c1ccccc1.[Na+]", "note": "[sodium benzoate]", "values": [{"measurement": "disease process of multiple sclerosis (MS)", "setting": "[6]", "result": "suppresses"}, {"measurement": "DJ-1 protein", "setting": "DJ-1", "result": "up-regulates"}, {"measurement": "production of BDNF", "setting": "BDNF and NT-3", "result": "increases"}, {"measurement": "production of NT-3", "setting": "BDNF and NT-3", "result": "increases"}]}
